Reference: US8329681B2, “Methods and compositions for the efficient delivery of therapeutic agents to cells and animals” (University of Massachusetts, priority 2005, dated 2012)

Key:
FL83B cells [1] = assay: Transfection of pSV-β-gal plasmid, β-galactosidase reporter activity; format: cell-based, rat
Procedure: (§1) Cationic lipids and the co-lipids in chloroform were dried under a stream of N2 gas and vacuum-desiccated for a minimum of 6 h to remove residual organic solvent. The dried lipid film was hydrated in sterile deionized water at cationic lipid concentration of 1 mM for a minimum of 12 h. Liposomes were vortexed to remove any adhering lipid film and probe sonicated until a clear translucent solution is formed. The pDNA solution was added to the liposomes, mixed properly by pipeting and shaken on a rotary shaker (15-30 mins.) before use.
(§2) Cells were seeded at a density of 20,000 (for HeLa cells), 16,000 (for A-549 cells), 8,000 (for FL83B cells) per well in a 96-well plate 18-24 h before transfection. An amount of 0.30 μg of pDNA was complexed with varying amounts of lipids (to give +/− ratios of 0.3:1, 1:1, 3:1 and 9:1) in plain OPTIMEM (total volume made up to 100 μl) and then shaken on a rotary shaker at room temperature for 20-30 minutes. The complexes were then added to the cells. After 5 h of incubation, 200 μl of complete medium containing 10% FBS in DMEM for HeLa and 10% FBS in F-12K for FL83B and A549 was added to the cells. The medium was changed after 24 h and the reporter gene activity was estimated 48 h after transfection. Cells were washed with PBS (100 μl) and lysed in […] lysis buffer (5× reporter lysis buffer diluted to 1×, working concentration). The β-galactosidase activity per well was estimated by adding 50 μl of 2× substrate solution (1.33 mg/ml of ONPG, 0.2 M sodium phosphate, pH 7.15 and 2 mM magnesium chloride) to the lysate in a 96-well plate. Absorbance of the product ortho-nitrophenol was measured at 420 nm. The absorbance values reported are the average values from two replicate experiments performed in the same plate on the same day. Each transfection experiment was performed three times on three different days to control for variations in transfection efficiency.
(§3) Briefly, the efficacy of various lipid formulations were tested in three cell lines A-549, FL83B and HeLa cells and the transfection efficiencies of the cationic liposomal formulations were compared with a commercially available transfection reagent (e.g., Lipofectamine 2000).

FL83B cells [2] = assay: Cell Titer 96 AQueous One Solution (MTS) cytotoxicity assay; format: cell-based, rat; details: liposomal formulation alone or in combination with DOPE and DOPC as co-lipid
Procedure: (§4) Alternatively, the cytotoxicity of the lipids was measured using the Cell Titer 96® AQueous One Solution Cell Proliferation Assay. The Cell Titer 96® AQueous One Solution Reagent contains a tetrazolium compound [3-(4,5-dimethylthiazol-2-yl)-5-(3-carboxymethoxyphenyl)-2(4-sulfophenyl)-2H-tetrazolium, inner salt; MTS^17] and an electron coupling reagent (phenazine ethosulfate; PES). The cytotoxicity assay was performed in 96 well plates by maintaining the ratio of number of cells to amount of cationic lipid constant as in transfection experiments. MTS was added 24 hours after transfection. Cell Titer 96® AQueous One Solution Reagent (20 ul) was pipetted into each well of the 96-well assay plate containing the samples in 100 μl of culture medium. In case of HeLa cells the plates were incubated for 2 hours, whereas for FL83B cells, plates were incubated for 4 hours at 37° C. in a humidified, 5% CO2 atmosphere. Absorbance was then recorded at 490 nm.
(§5) In a second experiment, FL83B and HeLa cells were plated on 96 well plate 18 hours prior to transfection. Then, liposome was added to each well and incubated for 24 hours. Thereafter, Cell Titer 96® AQueous One Solution Reagent was added and incubated for 4 hours. The MTS tetrazolium compound (Owen's reagent) is bioreduced by viable cells into a colored formazan product that is soluble in tissue culture […]. The absorbance of the formazan was measured at 490 nm with a 96 well plate reader.

HeLa cells [3] = assay: as above; format: cell-based, human; details: liposomal formulation alone or in combination with DOPE and DOPC as co-lipid
Procedure: as §4, §5

HeLa cells [4] = assay: Transfection of pSV-β-gal plasmid, β-galactosidase reporter activity; format: cell-based, human
Procedure: as §1, §2, §3

A549 cells = assay: as above; format: cell-based, human
Procedure: as §1, §2, §3

FL83B cells [5] = assay: Cell Titer-Blue cell viability assay, cytotoxicity of liposomes; format: cell-based, rat; details: 50 μg/ml, 24 h incubation
Procedure: The Cell Titer-Blue Cell Viability Assay Kit (Promega, Madison, Wis.) was applied to detect and measure cytotoxicity in FL83B cells according to the manufacturer's instructions. Briefly, […] cells were plated on 96-well plate in F-12K medium (ATCC, Manassas, Va.) with 10% fetal bovine serum at 37° C. in 5% CO2. At 24 h., liposomes were added to each well at various concentrations and incubated for 24 h at 37° C. in 5% CO2. Afterwards, the Cell Titer-Blue Reagent was added to each well at 20 μl/well and incubated for 4 h at 37° C. in 5% CO2. The fluorescent signal was recorded by a fluorescent reader (560/590 nm).
Briefly, in a first experiment, the ability of eukaryotic cells to survive exposure to various lipids at doses of 20 and 50 μg/ml was examined. Fl83B cells were plated on 96-well plate for 24 hours. Typically liposomes were added to well and incubated at 37° C. for 24 hours. Thereafter, Cell Titer-Blue Reagent (resazurin) was added and incubated for 4 hours. Resazurin was used as indicator to measure the metabolic capacity of cells. Viable cells retain the ability to reduce resazurin into resorufin, which is highly fluorescent. […] The fluorescence in each well was measured by fluorescent reader.
All cytotoxicity measurements were performed after 24 h of incubation with new synthesizes liposome without medium changes. […]

CDK9 expression = assay: In vivo delivery of CDK9 siRNA with liposome by tail vein injection, CDK9 expression in spleen; set-up: species or system BALB/c mice; details: Cy3-labeled CDk9 siRNA (25 μg) and liposome (125 μg), repeated 4 and 8 h later, within the initial 24 h after treatment
Procedure: Total RNA was extracted from tissues or cultured cells using Trizol (Invitrogen, Carlsbad, Calif.), and real-time RT-PCR for CDK9 and GAPDH mRNA quantification was carried out using 200 ng of total RNA and the QuantiTect SYBR Green RT-PCR Kit (Qiagen, Valencia, Calif.) according to the manufacturer's instructions. The ratio of CDK9 and GAPDH mRNA was calculated and expressed as a group average relative to the control group. The specific probe for detection of CDK9 mRNA levels was designed to the following regions of the CDK9 mRNA ORF, the forward primer 5′ TCGGACCAA AGCCTCACCGTATAA 3′, the reverse primer 5′ […] TTG 3′
Male BALB/c mice, 6-8 weeks of age and weighting 20-22 g, were purchased form the Jackson Laboratory (Bar Harbor, Me.). Synthetic siRNA were delivered in vivo using following method. For each mice 25 μg of siRNA in 100 μl of HEPES Buffered Saline (20 mM HEPES, 150 mM NaCl, pH 7.4) was transferred into a sterile tube. In a separate sterile tube 125 μg of liposome was mixed with 200 μl HEPES Buffered Saline. The siRNA solution was transferred to the tube containing liposome solution and then incubated at room temperature for 20 minutes. 200 μl of the complexes was injected via the tail vein, using a 1-ml syringe and 27-gauge needle. The injection was repeated 4 and 8 h later. Control mice were injected with an equal volume of liposome. At 24 h after the last injection, the mice were sacrificed and tissues were harvested for further analysis. CDK9 expression level was normalized with GAPDH and then compared to those obtained from control animals and shown as percent expression. The data represent the mean value +/− SD of three to five mice in each group.
Briefly, the ability of the new synthesized liposome to deliver siRNA in mice was investigated. BALB/c mice were administrated with complexes of Cy3-labeled CDk9 siRNA (25 μg) and liposome (125 μg) via normal pressure tail vein injection. The injection was repeated 4 and 8 h later. Control mice were administrated with an equal amount of liposome. […]

[6] = test system: A-549, FL83B and HeLa cells; assay: Transfection of pSV-β-gal plasmid, overall statement without cell line; format: cell-based; details: alone without any co-lipids
Procedure: as §2, with “efficiency. […]” for “efficiency.”

[7] = alone or in combination with DOPE and DOPC, lipid:DNA charge ratio 9.0:1 to 0.3:1.0
[8] = lipid:DNA charge ratio 9.0:1 to 0.3:1.0
[9] = in combination with DOPE and DOPC
[10] = alone and in combination with DOPE and DOPC, lipid:DNA charge ratio 9.0:1 to 0.3:1

`CC(C)CCC[C@@H](C)[C@H]1CC[C@H]2[C@@H]3CC=C4C[C@@H](OC(=O)NCC[N+](C)(C)CCCCCCCCCCCO)CC[C@]4(C)[C@H]3CC[C@]12C.[Br-]` [Lipid 16] was tested, and the “transfection efficiency compared with Lipofectamine 2000” value (FL83B cells [1]; alone or in combination with co-lipids) was “about two fold less”, the “cytotoxicity as compared to a control” value (FL83B cells [2]) was “non-toxic” and the “cytotoxicity as compared to a control” value (HeLa cells [3]) was “non-toxic”. For the same molecule, the “transfection efficiency, fold less active than Lipofectamine 2000” value (HeLa cells [4]; [7]) was “about 1.5 fold”, the “transfection efficiency of lipid alone compared with combination with co-lipids DOPE and DOPC” value (HeLa cells [4]; [8]) was “almost the same” and the “transfection efficiency compared with Lipofectamine 2000” value (A549 cells; [7]) was “about a little more than one fold”. The “transfection efficiency of lipid alone compared with combination with co-lipids DOPE and DOPC” value (A549 cells; [8]) was “almost the same”.

In the case of `CCCCCCCCCCCCCC(=O)O[C@H](COC(=O)CCC(=O)O[C@H]1CC[C@@]2(C)C(=CC[C@H]3[C@@H]4CC[C@H]([C@H](C)CCCC(C)C)[C@@]4(C)CC[C@@H]32)C1)C[N+](C)(CCO)CCO.[I-]` [Lipid 9], the cell death (FL83B cells [5]) is reported as 12%, the “CDK9 expression level in the spleen decreased by” value (CDK9 expression) is reported as 30% and the “transfection efficiency, fold less than Lipofectamine 2000” value (FL83B cells [1]; [9]) is reported as “more than 1 fold”. For the same molecule, the “transfection efficiency, fold less than Lipofectamine 2000” value (HeLa cells [4]; [9]) was “more than 1 fold” and the “transfection efficiency compared with Lipofectamine 2000” value (A549 cells; [9]) was “comparable”.

In the case of `CC(C)CCC[C@@H](C)[C@H]1CC[C@H]2[C@@H]3CC=C4CC(OC(=O)CCC(=O)OCC(O)C[N+](C)(C)C)CC[C@]4(C)[C@H]3CC[C@]12C` (some centres unmarked) [Lipid 12, N,N,N-Trimethyl-N-[2-hydroxy, 3-succinyloxy(4-cholesteryloxy)-propyl]ammonium iodide], the “transfection efficiency compared with Lipofectamine 2000” value (FL83B cells [1]; lipid:DNA charge ratio 0.3:1) is reported as “comparable”, the “transfection efficiency compared with Lipofectamine 2000” value (HeLa cells [4]; lipid:DNA charge ratio 0.3:1) is reported as “comparable” and the “transfection efficiency compared with Lipofectamine 2000” value (A549 cells; lipid:DNA charge ratio 0.3:1) is reported as “comparable”.

For `CCCCCCCCCCCCCC(=O)OC(COC(=O)CCC(=O)O[C@H]1CC[C@@]2(C)C(=CC[C@H]3[C@@H]4CC[C@H]([C@H](C)CCCC(C)C)[C@@]4(C)CC[C@@H]32)C1)C[N+](C)(C)C.[I-]` (some centres unmarked) [Lipid 7, N,N,N-Trimethyl-N-[2-(tetradecanoyloxy),3-succinyloxy(4-cholesteryloxy)-propyl]ammonium iodide], the “CDK9 expression level in the spleen decreased by” value (CDK9 expression) was 40%, the “transfection efficiency compared with Lipofectamine 2000” value (FL83B cells [1]; [10]) was “comparable” and the “cytotoxicity as compared to a control” value (FL83B cells [2]) was “non-toxic”. The “transfection efficiency of lipid alone compared with lipid in combination with DOPE and DOPC” value [6] was “about as efficient”, the “cytotoxicity as compared to a control” value (HeLa cells [3]) was “non-toxic” and the “transfection efficiency compared with Lipofectamine 2000” value (HeLa cells [4]; [10]) was “more than one fold less”. For the same molecule, the “transfection efficiency compared with Lipofectamine 2000” value (A549 cells; [10]) was “comparable”.

In the case of `CC[N+](C)(C)CCNC(=O)OC1CC[C@@]2(C)C(=CC[C@H]3[C@@H]4CC[C@H]([C@H](C)CCCC(C)C)[C@@]4(C)CC[C@@H]32)C1` (some centres unmarked) [Lipid 14], the “transfection efficiency compared with Lipofectamine 2000” value (FL83B cells [1]; alone, charge ratio 3:1) is reported as “comparable”, the “transfection efficiency compared with Lipofectamine 2000” value (FL83B cells [1]; in combination with DOPC) is reported as “less efficient” and the “transfection efficiency compared with Lipofectamine 2000” value (FL83B cells [1]; in combination with DOPE, charge ratio 9:1) is reported as “comparable”. The “transfection efficiency compared with Lipofectamine 2000” value (HeLa cells [4]; in combination with DOPC, lipid:DNA charge ratio 0.3:1) was “almost comparable”, the “transfection efficiency, fold less than Lipofectamine 2000” value (HeLa cells [4]; in combination with DOPE) was 2.5 fold and the “transfection efficiency, fold less than Lipofectamine 2000” value (HeLa cells [4]; lipid alone, charge ratio 9:1 to 3:1) was “more than 1.5 fold”. For the same molecule, the “transfection efficiency, fold less than Lipofectamine 2000” value (A549 cells; alone or in combination with DOPE and DOPC, lipid:DNA charge ratios 1:1 and 0.3:1) was “about 1.5 fold”.
